The numbers were not newly measured in patent EP0983068B1, “THE USE OF 1,2,4-TRIAZOLO 1,5-c]PYRIMIDINE HETEROCYCLIC ANALOGUES FOR THE PREPARATION OF MEDICAMENTS USEFUL FOR THE TREATMENT OF CEREBROVASCULAR DISTURBANCES” (SCHERING-PLOUGH S.p.A., priority 1997, dated 1998), which cites them from elsewhere.

The test system of this data set is cerebral ischemia. The note with it: Life Sciences, 55, 61-65, 1994; Brain Research 705, 79-84, 1995.

As for CP66713, the “effect in cerebral ischemia animal models” value is on record as “act favourably”.
